{
  "source": "patent US20130184308A1",
  "about": "“ACTIVATED BLOOD COAGULATION FACTOR X (FXa) INHIBITOR” (DAIICHI SANKYO COMPANY, LIMITED, priority 2008, published 2013)",
  "key": {"F1+2, TAT, D-dimer [1]": {"system": "F1+2, TAT, D-dimer", "settings": "atrial fibrillation patients; anticoagulant therapy (N. Vene et al., Thromb Haemost 2003); cited from earlier work"}, "D-dimer": {"system": "D-dimer", "experiment": "Dose comparison study in non-valvular atrial fibrillation patients: biomarker D-dimer", "assay_type": "in vivo, human", "settings": "28 days after administration", "method": "(§1) Moreover, secondary evaluations were performed for efficacy by the comparison of the incidence of thromboembolic events, pharmacodynamic indexes, and biomarkers, and for safety by the comparison of the incidences of adverse events and adverse reactions. […] In the group to which warfarin was administered, 0.5-mg and 1-mg warfarin tablets were used and orally administered once a day for 12 weeks as a rule at a dose that allowed PT-INR to be controlled to between 2.0 and 3.0 inclusive (for 70-year-old or older participants, between 1.6 and 2.6 inclusive).\n(§2) The clinical trial was carried out by, after obtaining the consent of test subjects, conducting head diagnostic imaging before registration to confirm no bleeding observation, and conducting head diagnostic imaging (CT or MRI), transthoracic echocardiography, lead electrocardiography, blood pressure examination, pulse rate examination, and hematological/biochemical tests.\n(§3) The biomarkers F1+2 and TAT are markers of thrombin formation, while D-dimer is a marker of secondary fibrinolysis."}, "F1+2, TAT, D-dimer [2]": {"system": "F1+2, TAT, D-dimer", "experiment": "Early phase II trials: biomarkers F1+2, TAT and D-dimer", "assay_type": "in vivo, human", "text": "as §3"}, "bleeding events [3]": {"system": "bleeding events", "method": "as §1, §2\nIn the secondary analysis, the hypothesis (comparison) shown below was studied on the incidence of bleeding events using the one-sided Cochran-Armitage test at the 0.025 level of significance.\nThis clinical trial was carried out in conformity to the standards specified by Article 14 Paragraph 3 and Article 80-2 of the Pharmaceutical Affairs Law and MHW Ordinance No. 28 “Standards for the Implementation of Clinical Trials on Pharmaceutical Products” (Mar. 27, 1997; hereinafter, referred to as the GCP ordinance). The implementation of this clinical trial conformed to the ethical research guidelines of the Declaration of Helsinki and secured the maximal human rights, welfare, and safety of the test subjects. [Protocol No. of this clinical trial: DU-176b-C-J225_Ver.03.05.000]."}, "bleeding events [4]": {"system": "bleeding events", "settings": "total knee arthroplasty patients; 5 mg to 60 mg oral once a day 11 to 14 days", "text": "The implementation of this clinical trial conformed to the ethical research guidelines of the Declaration of Helsinki and secured the maximal human rights, welfare, and safety of the test subjects."}, "[5]": {"settings": "NVAF patients, 30 mg, 45 mg, 60 mg oral once a day 12 weeks"}},
  "note": "Like-named read-outs stand apart in the source and are kept apart here.",
  "data": [
    {"smiles": "CC(=O)CC(c1ccccc1)c1c(O)c2ccccc2oc1=O", "note": "(centres unmarked) [warfarin, warfarin potassium]", "values": [
      {"measurement": "levels of biomarkers F1+2, TAT and D-dimer", "setting": "F1+2, TAT, D-dimer [1]", "result": "decreased by anticoagulant therapy using warfarin"}
    ]},
    {"smiles": "CN1CCc2nc(C(=O)N[C@@H]3C[C@@H](C(=O)N(C)C)CC[C@@H]3NC(=O)C(=O)Nc3ccc(Cl)cn3)sc2C1.Cc1ccc(S(=O)(=O)O)cc1", "note": "[compound (1a), N^1-(5-chloropyridin-2-yl)-N^2-((1S,2R,4S)-4-[(dimethylamino)carbonyl]-2-{[(5-methyl-4,5,6,7-tetrahydrothiazolo[5,4-c]pyridin-2-yl)carbonyl]amino}cyclohexyl)ethanediamide p-toluenesulfonate monohydrate]", "values": [
      {"measurement": "D-dimer (secondary fibrinolysis biomarker)", "setting": "D-dimer; NVAF patients, compared with warfarin", "result": "comparable to that of warfarin"},
      {"measurement": "D-dimer (secondary fibrinolysis biomarker)", "setting": "D-dimer; test subjects having no history of warfarin administration, compared with warfarin-administered patients", "result": "comparable to that of warfarin-administered patients"},
      {"measurement": "levels of biomarkers F1+2, TAT and D-dimer", "setting": "F1+2, TAT, D-dimer [2]", "result": "reduce the levels of these biomarkers"},
      {"measurement": "incidence of bleeding events in four groups divided by BW (60 kg) and Ccr (50)", "setting": "bleeding events [3]; NVAF patients that received compound (1a)", "result": "highest incidence of bleeding events was obtained in the group of (4) BW≦60 kg, Ccr≦50"},
      {"measurement": "incidence of bleeding events (major, clinically relevant non-major, minor), dose response", "setting": "bleeding events [3]; [5]", "result": "increased as the dose of the compound (1a) got higher"},
      {"measurement": "incidence of bleeding events compared with warfarin group", "setting": "bleeding events [3]; [5]", "result": "no significant difference"},
      {"measurement": "incidence of bleeding events, Ccr≦50 versus Ccr>50", "setting": "bleeding events [3]; NVAF patients, 45 mg/kg or higher (so in the source)", "result": "higher in the group to which compound (1a) had been administered involving the test subjects having creatinine clearance (Ccr) of Ccr≦50"},
      {"measurement": "incidence of bleeding events, BW≦60 kg versus BW>60 kg", "setting": "bleeding events [3]; NVAF patients, dose of 45 mg/kg or higher (so in the source)", "result": "higher in the group to which compound (1a) had been administered involving the test subjects having a body weight (BW) of BW≦60 kg"},
      {"measurement": "incidence of bleeding events compared with placebo group", "setting": "bleeding events [4]", "result": "did not differ from that in the group to which the placebo had been administered"},
      {"measurement": "number of bleeding events", "setting": "bleeding events [4]", "result": "increased in a manner dependent on the dose"}
    ]}
  ]
}
